Results from patent US5663182A, “Antipsychotic method” (priority 1996, dated 1997).
Where a name gives a salt, the structure may show the parent alone. Each block holds one compound with its values, some of them ahead of it.

Key:
muscarinic receptors = test: 3H-oxotremorine-M binding assay; details: 3 nM 3H-oxotremorine-M, rat cerebral cortical membranes, 15 min 25° C.; read-out: Inhibition of 3H-Oxo
Method: Each compound was tested to determine the affinity of the compound for the muscarinic receptors using the following procedure.
For each in vitro binding, male Sprague-Dawley (Harlan Sprague-Dawley, Indianapolis, Ind.) rats weighing from about 100 to about 150 grams each were sacrificed by decapitation. The brains were quickly removed and the cerebral cortex were dissected from the brain. The cerebral cortex tissue was homogenized in 10 volumes of 0.32 M sucrose and […] about 10 minutes at about 1000 x g. The supernatant was centrifuged at about 12,000 x g for about 10 minutes and the resulting pellet was resuspended in 20 mM tris-Cl, pH 7.4. The resuspended pellet was centrifuged again for about 10 minutes at about 50,000 x g. The resulting homogenate was preincubated for about 10 minutes at about 25° C. and centrifuged again for about 10 minutes at about 50,000 x g. The pellet was resuspended at 1 gram of pellet per 3 ml of buffer and frozen at about -80° C. until used.
The aforementioned homogenates mixture was incubated for about 15 minutes at about 25° C. and then the homogenates were filtered through glass filters (Whatman, GF/C) with vacuum. The filters were washed 3 times with about 2 ml of cold tris-Cl buffer, and placed in scintillation vials containing about 10 ml of scintillation fluid (Ready Protein+, Beckman, Fullerton, Calif.). Radioactivity trapped on the filters was determined by liquid scintillation spectrometry. Nonspecific binding was determined using 1 μM atropine. […] DeLean, A. et al. Am.

Rats = test: Conditioned avoidance behavior in rats; assay type: in vivo, rat; details: screening dose 3.0 mg/kg s.c. 30 min before session
From the text: In a conditioned avoidance test, animals learn to respond during a conditioned stimulus in order to avoid mild shock presentation. A response during the conditioned stimulus is termed an avoidance respone, a response during shock is termed an escape response; a response failure is when the animal fails to respond during either the conditioned stimlus or the shock presentation and is indicative of motor impairment. […] Antipsychotic drugs decrease the percentage of avoidance responses without interfering with the ability of the animal to respond since the animals do emit escape responses. The percentage of response failures is considered a measure of motor impairment.
Rats were required to press a response lever in an experimental chamber in order to avoid or escape foot-shock. Each experimental session consisted of 50 trials. During each trial, the chamber was illuminated and a tone presented for a maximum of 10 sec. A response during the tone immediately terminated the tone and the houselight, ending the trial. In the absence of a response during the tone alone, tone+foot-shock (2.0 mA) was presented for a maximum of 10 sec. A response during shock presentation immediately terminated the shock, the tone and the houselight, ending the trial.
For drug screening, a dose of 3.0 mg/kg was administered s.c. 30 min before the start of the experimental session.

[1] = tested on: psychiatric patients suffering from schizophrenia; details: cited from earlier work

Compound: CCCCOc1nsnc1C1CN2CCC1CC2.O=C(O)C(=O)O (stereo not shown) [Compound 46, 3-(3-Butoxy-1,2,5-thiadiazol-4-yl)-1-azabicyclo[2.2.2]octane oxalate]
IC50 (muscarinic receptors): 1.6 nM
Conditioned Avoidance % Avoidance Responses (Rats): 30%

Compound: CCSc1nsnc1C1CN2CCC1CC2.O=C(O)C(=O)O (stereo not shown) [Compound 52, 3-(3-Ethylthio-1,2,5-thiadiazol-4-yl)-1-azabicyclo[2.2.2]octane oxalate]
IC50 (muscarinic receptors): 1.8 nM
Conditioned Avoidance % Avoidance Responses (Rats): 63%

Compound: CCCSc1nsnc1C1CN2CCC1CC2.O=C(O)C(=O)O (stereo not shown) [Compound 53, 3-(3-Propylthio-1,2,5-thiadiazol-4-yl)-1-azabicyclo[2.2.2]octane oxalate]
IC50 (muscarinic receptors): 0.9 nM
Conditioned Avoidance % Avoidance Responses (Rats): 41%

Compound: O=C(O)/C=C/C(=O)O.c1ccc(OCCSc2nsnc2C2CN3CCC2CC3)cc1 (stereo not shown) [Compound 102, 3-(3-(2-Phenoxyethylthio)-1,2,5-thiadiazol-4-yl)-1-azabicyclo[2.2.2]octane fumarate]
IC50 (muscarinic receptors): 4.5 nM
Conditioned Avoidance % Avoidance Responses (Rats): 3%

Compound: N#CCSc1nsnc1C1CN2CCC1CC2.O=C(O)C(=O)O (stereo not shown) [Compound 103, 3-(3-Cyanomethylthio-1,2,5-thiadiazol-4-yl)-1-azabicyclo[2.2.2]octane oxalate]
IC50 (muscarinic receptors): 2.7 nM
Conditioned Avoidance % Avoidance Responses (Rats): 51%

Compound: O=C(O)/C=C/C(=O)O.c1csc(CCCSc2nsnc2C2CN3CCC2CC3)c1 (stereo not shown) [Compound 104, 3-(3-(3-(2-Thienyl)propylthio)-1,2,5-thiadiazol-4-yl)-1-azabicyclo[2.2.2]octane fumarate]
IC50 (muscarinic receptors): 2.6 nM
Conditioned Avoidance % Avoidance Responses (Rats): 24%

Compound: Cn1nnnc1SCCCCSc1nsnc1C1CN2CCC1CC2 (stereo not shown) [Compound 106, oxalate]
IC50 (muscarinic receptors): 2.8 nM
Conditioned Avoidance % Avoidance Responses (Rats): 55%

Compound: Cc1nnc(SCCCCSc2nsnc2C2CN3CCC2CC3)s1 (stereo not shown) [Compound 107, oxalate]
IC50 (muscarinic receptors): 1 nM
Conditioned Avoidance % Avoidance Responses (Rats): 52%

Compound: CSc1nsnc1C1CN2CCC1CC2.O=C(O)C(=O)O (stereo not shown) [Compound 131, 3-(3-Methylthio-1,2,5-thiadiazol-4-yl)-1-azabicyclo[2.2.2]octane oxalate]
IC50 (muscarinic receptors): 2.8 nM
Conditioned Avoidance % Avoidance Responses (Rats): 53%

IC50 (muscarinic receptors): 10 nM
Compound: CC(C)CCCSc1nsnc1[C@H]1CN2CCC[C@H]1C2 [Compound 157, (+)-Exo-(5R,6R)-6-(3-isohexylthio-1,2,5-thiadiazol-4-yl)-1-azabicyclo[3.2.1]-octane (+) L-tartrate]
Conditioned Avoidance % Avoidance Responses (Rats): 12%

IC50 (muscarinic receptors): 10 nM
Compound: CC(C)CCCSc1nsnc1[C@@H]1CN2CCC[C@@H]1C2 [Compound 158, (-)-Exo-6-(3-isohexylthio-1,2,5-thiadiazol-4-yl)-1-azabicyclo[3.2.1]octane oxalate]
Conditioned Avoidance % Avoidance Responses (Rats): 47%

Compound: CN1CCN(C2=Nc3cc(Cl)ccc3Nc3ccccc32)CC1 [clozapine]
agranulocytosis ([1]; reported for clinical use): cause agranulocytosis in some patients

Compound: Cc1cc2c(s1)Nc1ccc(F)cc1N=C2N1CCN(C)CC1 [flumezapine, 7-fluoro-2-methyl-10-(4-methyl-1-piperazinyl)-4H-thieno[2,3-b][1,5]-benzodiazepine]
incidence of raised enzyme levels (CPK, SGOT, SGPT) in treated patients ([1]; 17 patients treated, clinical trial terminated): unacceptably high incidence of raised enzyme levels

Compound: O=C(CCCN1CCC(O)(c2ccc(Cl)cc2)CC1)c1ccc(F)cc1 [haloperidol]
extra pyramidal symptoms ([1]; reported for clinical use): high incidence of extra pyramidal symptoms
